According to US20200031811A1, “SUBSTITUTED MONO- AND POLYAZANAPHTHALENE DERIVATIVES AND THEIR USE” (Basilea Pharmaceutica International AG, priority 2015, published 2020):

Legend:
[1] = biological target: T1, MNK1 (Homo sapiens, UniProt Q9BUB5); assay: MNK inhibition assay (Z-Lyte kinase assay, Ser/Thr 7 peptide); type: biochemical; settings: for IC50: recombinant GST-MNK1, 3 hours at 31° C.
T1 construct: purchased Life Technologies or Carna Biosciences PV6023 or 02-145; host or cells: baculovirus infected insect cells
T1 sequence (Q9BUB5 whole entry): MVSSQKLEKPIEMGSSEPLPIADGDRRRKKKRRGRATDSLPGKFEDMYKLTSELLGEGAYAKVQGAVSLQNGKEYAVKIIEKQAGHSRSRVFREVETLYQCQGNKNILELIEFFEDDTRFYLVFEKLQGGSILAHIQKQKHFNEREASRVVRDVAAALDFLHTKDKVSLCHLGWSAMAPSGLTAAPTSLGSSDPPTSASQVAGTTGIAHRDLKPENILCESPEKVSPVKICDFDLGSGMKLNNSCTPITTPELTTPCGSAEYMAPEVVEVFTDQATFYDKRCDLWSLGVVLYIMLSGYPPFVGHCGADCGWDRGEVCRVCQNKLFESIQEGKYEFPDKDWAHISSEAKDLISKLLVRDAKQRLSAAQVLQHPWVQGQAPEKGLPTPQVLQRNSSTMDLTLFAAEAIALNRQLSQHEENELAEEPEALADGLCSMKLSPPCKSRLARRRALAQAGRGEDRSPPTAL
Method in brief: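 Recombinant GST-MNK1 from baculovirus-infected insect cells, Z-Lyte Ser/Thr 7 peptide, enzyme set for ~30% phosphorylation in buffer-only wells; 3 hours at 31° C. Compounds at 50–10000 nM (potent ones down to 0.5 nM), at least duplicate. IC50 from % substrate phosphorylation versus buffer-only wells, fluorescence read-out.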

[2] = tested on: human pancreatic cancer cell line MiaPaCa2 (ATCC CRL-1420); assay: Cell growth assay (CellTiterGlo, 72 hours); type: cell-based; settings: for IC50: MIA PaCa-2, MiaPaCa2 cells, 72 hours, read-out: IC50 MiaPaCa
Method in brief: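 MiaPaCa2 cells (10^3/well) seeded in supplemented DMEM overnight, then exposed in quadruplicate to compound at 100 down to 0.1 μM for 72 h at 37° C. Growth read by CellTiterGlo luminescence, medium-only background subtracted, normalised to untreated cells; IC50 = concentration reducing growth to 50%.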

| IC50 [1] | IC50 [2] | inhibition at 10 µM ([1]; at 10 μM, read-out: Inhibition of MNK1 activity at indicated concentration) | Compound | inhibition at 50 µM ([2]; MIA PaCa-2, at 50 μM, read-out: Inhibition of MiaPaCa growth at indicated concentration) |
| --- | --- | --- | --- | --- |
| 0.145 µM | 5.76 µM |  | NC1CCN(Cc2cc(Cl)c3cncc(-c4cccs4)c3c2)CC1 [Example 240] |  |
| 0.213 µM | 10.4 µM |  | NC1CCN(Cc2cc(Cl)c3cncc(-c4ccccc4)c3c2)CC1 [Example 241] |  |
| 0.164 µM | 2.74 µM |  | COc1cc(CN2CCC(N)CC2)cc2c(-c3cc4ccccc4o3)cncc12 [Example 242, 1-[[4-(Benzofuran-2-yl)-8-methoxy-6-isoquinolyl]methyl]piperidin-4-amine] |  |
| 0.347 µM | 5.73 µM |  | COc1cc(CN2CCC(N)CC2)cc2c(-c3ccc(F)c(F)c3)cncc12 [Example 243] |  |
| 0.116 µM | 14.2 µM |  | COc1cc(CN2CCC(N)CC2)cc2c(-c3ccco3)cncc12 [Example 244] |  |
| 0.024 µM | 3.33 µM |  | COc1cc(CN2CCC(N)CC2)cc2c(-c3cccs3)cncc12 [Example 245] |  |
| 0.432 µM | 5.73 µM |  | COc1cc(CN2CCC(N)CC2)cc2c(-c3ccccc3)cncc12 [Example 246] |  |
| 0.228 µM | 8.4 µM |  | NC1CCN(Cc2cc(F)c3cncc(-c4cc5ccccc5o4)c3c2)CC1 [Example 247] |  |
| 0.147 µM | 10 µM |  | NC1CCN(Cc2cc3c(-c4cc5ccccc5o4)cncc3c(F)c2F)CC1 [Example 248] |  |
| 0.044 µM | 7.86 µM |  | NC1CCN(Cc2cc3c(-c4cc5ccccc5o4)cncc3cc2F)CC1 [Example 249] |  |
| 0.064 µM | 4.94 µM |  | NC1CCN(Cc2cc3c(-c4cc5ccccc5o4)cncc3cc2Cl)CC1 [Example 250] |  |
| 0.055 µM | 4.55 µM |  | NC1CCN(Cc2cc3c(-c4ccccc4)cncc3cc2Cl)CC1 [Example 251, 1-[(7-Chloro-4-phenyl-6-isoquinolyl)methyl]piperidin-4-amine] |  |

The next lines start with the compound.

| Compound | IC50 [1] | IC50 [2] | inhibition at 10 µM ([1]; at 10 μM, read-out: Inhibition of MNK1 activity at indicated concentration) | inhibition at 50 µM ([2]; MIA PaCa-2, at 50 μM, read-out: Inhibition of MiaPaCa growth at indicated concentration) |
| --- | --- | --- | --- | --- |
| c1coc(-c2cncc3ccc(CN4CCNCC4)cc23)c1 [Example 225] | 0.096 µM |  |  | 65% |
| Cc1ccc(-c2cncc3ccc(CN4CCNCC4)cc23)o1 [Example 226] | 0.229 µM | 20.4 µM |  |  |
| NC1CCN(Cc2ccc3cncc(-c4nc5ccccc5s4)c3c2)CC1 [Example 227, 1-[[4-(1,3-Benzothiazol-2-yl)-6-isoquinolyl]methyl]piperidin-4-amine] | 1.02 µM | 4.43 µM |  |  |
| NC1CCN(Cc2ccc3cncc(-c4nc5ccccc5o4)c3c2)CC1 [Example 228] | 0.483 µM | 4.98 µM |  |  |
| N[C@H]1CC[C@H](Nc2ccc3cncc(-c4ccccc4)c3c2)CC1 [Example 229, trans-N4-(4-phenyl-6-isoquinolyl)cyclohexane-1,4-diamine] | 0.225 µM | 4.5 µM |  |  |
| N[C@H]1CC[C@H](CNc2ccc3cncc(-c4cc5ccccc5o4)c3c2)CC1 [Example 230, trans-N-[(4-Aminocyclohexyl)methyl]-4-(benzofuran-2-yl) isoquinolin-6-amine] | 2.19 µM | 6.02 µM |  |  |
| N[C@H]1CC[C@@H](CNc2ccc3cncc(-c4cc5ccccc5o4)c3c2)CC1 [Example 231] |  | 3.24 µM | 54% |  |
| Nc1ncc(-c2cc3ccccc3o2)c2cc(NCc3ccncc3)ccc12 [Example 233, 4-(Benzofuran-2-yl)-N6-(4-pyridylmethyl)isoquinoline-1,6-diamine] | 4.3 µM | 6.8 µM |  |  |
| NC1CCN(Cc2cc(Cl)c3cncc(-c4cc5ccccc5o4)c3c2)CC1 [Example 236, 1-[[4-(Benzofuran-2-yl)-8-chloro-6-isoquinolyl]methyl]piperidin-4-amine] | 0.579 µM | 4.4 µM |  |  |
| NC1CCN(Cc2cc(Cl)c3cncc(-c4ccc(Cl)cc4)c3c2)CC1 [Example 237] | 0.426 µM | 7.8 µM |  |  |
| NC1CCN(Cc2cc(Cl)c3cncc(-c4ccc(F)c(F)c4)c3c2)CC1 [Example 238] | 0.234 µM | 9.08 µM |  |  |
| NC1CCN(Cc2cc(Cl)c3cncc(-c4ccco4)c3c2)CC1 [Example 239] | 0.1 µM | 3.2 µM |  |  |
